# Results taken from US7842488B2, “Polynucleotides encoding a human 3-phosphoinositide- dependent protein kinase” (Medical Research Council, priority 1997, dated 2010).
# T1: GST-PDK1 (Homo sapiens, UniProt O15530)
# T1 construct: Residues 52-556 of PDK1 were expressed in human embryonic kidney 293 cells; made in house; host or cells: human embryonic kidney 293 cells (pEBG2T)
# T1 sequence (O15530 52-556): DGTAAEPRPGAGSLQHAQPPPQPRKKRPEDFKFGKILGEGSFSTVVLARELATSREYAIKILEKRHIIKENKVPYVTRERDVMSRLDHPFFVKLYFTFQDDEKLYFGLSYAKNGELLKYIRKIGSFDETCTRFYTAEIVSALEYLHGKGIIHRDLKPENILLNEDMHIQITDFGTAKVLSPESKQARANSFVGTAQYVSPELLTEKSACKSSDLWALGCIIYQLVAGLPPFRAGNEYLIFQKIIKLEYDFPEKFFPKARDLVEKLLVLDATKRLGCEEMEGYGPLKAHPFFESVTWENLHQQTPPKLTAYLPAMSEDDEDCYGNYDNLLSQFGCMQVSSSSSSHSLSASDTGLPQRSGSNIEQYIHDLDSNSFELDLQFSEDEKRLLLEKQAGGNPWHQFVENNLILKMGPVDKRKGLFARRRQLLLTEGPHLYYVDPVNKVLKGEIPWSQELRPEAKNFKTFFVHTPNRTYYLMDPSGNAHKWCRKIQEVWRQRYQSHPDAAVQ
# B1: Myc-D223A-PDK1: catalytically inactive mutant of PDK1, Myc-tagged (protein)
# chain: MARTTSQLYDAVPIQSSVVLCSCPSPSMVRTQTESSTPPGIPGGSRQGPAMDGTAAEPRPGAGSLQHAQPPPQPRKKRPEDFKFGKILGEGSFSTVVLARELATSREYAIKILEKRHIIKENKVPYVTRERDVMSRLDHPFFVKLYFTFQDDEKLYFGLSYAKNGELLKYIRKIGSFDETCTRFYTAEIVSALEYLHGKGIIHRDLKPENILLNEDMHIQITAFGTAKVLSPESKQARANSFVGTAQYVSPELLTEKSACKSSDLWALGCIIYQLVAGLPPFRAGNEYLIFQKIIKLEYDFPEKFFPKARDLVEKLLVLDATKRLGCEEMEGYGPLKAHPFFESVTWENLHQQTPPKLTAYLPAMSEDDEDCYGNYDNLLSQFGCMQVSSSSSSHSLSASDTGLPQRSGSNIEQYIHDLDSNSFELDLQFSEDEKRLLLEKQAGGNPWHQFVENNLILKMGPVDKRKGLFARRRQLLLTEGPHLYYVDPVNKVLKGEIPWSQELRPEAKNFKTFFVHTPNRTYYLMDPSGNAHKWCRKIQEVWRQRYQSHPDAAVQ
# modifications: left off: small tags and cut ends
# B2: Myc-PDK1: Myc-epitope tagged PDK1 transfected into 293 cells (protein)
# chain: T1 sequence (O15530 52-556)
# modifications: left off: small tags and cut ends
# Columns and labels:
# [1] = system: PDK1; assay: PDK1 assay: activation of GST-PKBα by purified PDK1 with phospholipid vesicles; assay type: biochemical, rabbit; details: lipid 10 μM in vesicles of 100 μM PtdCho, 100 μM PtdSer, 30 min at 30° C.
# Experimental: Assay of PDK1. The assay was carried out in two stages; in the first, GST-PKBα was incubated with PDK1 in the presence of MgATP and phospholipid vesicles to permit activation of GST-PKBα.
# After 10 min at 30° C., the reactions were terminated by spotting the reaction mixture on to p81 phosphocellulose paper. The papers were washed in phosphoric acid and analysed as described previously. […] The basal GST-PKBα activity is the activity measured in the absence of PDK1.
# [2] = system: PDK1; assay: Phosphorylation of GST-PKBα by PDK1 with [γ32P]ATP; assay type: biochemical, rabbit; details: lipid 10 μM in PtdCho/PtdSer vesicles
# Experimental: Solutions were stored at 4° C. at concentrations 10-fold higher than those required in the assay and used within 2-4 days.
# Phosphorylation of GST-PKB ? by PDK1. The incubations were identical to the Stage 1 described above except that [γ^32P] ATP (200-400 cpm/pmol) was used instead of unlabelled ATP. The reactions were terminated by making the solution 1% (by mass) in SDS. […] The Coomassie blue-staining bands corresponding to GST-PKBα were excised and the ^32P-radioactivity associated with each band was quantified.
# [3] = target: T1, GST-PDK1; assay: GST-PDK1 assay: activation and phosphorylation of GST-PKBα; assay type: biochemical; details: lipid 10 μM in PtdCho/PtdSer vesicles
# Experimental: (§1) FIG. 12. […] In panels A and C, the assays were terminated by making the incubations 1% (by vol) in TRITON X-100™ (see Ref 21), and the increase in specific activity of GST-PKBα was determined. In panels B and D, the reactions were terminated by making the solutions 1% in SDS, the samples were subjected to SDS/polyacrylamide gel electrophoresis, and the phosphorylation was assessed by autoradiography of the Coomassie blue-stained band corresponding to GST-PKBα.
# (§2) One unit of PDK1 activity was defined as that amount required to increase the basal activity of GST-PKBα by 1 unit of activity in one min.
# [4] = target: T2, GST-DSTPK61 (Drosophila melanogaster, UniProt Q9W0V1); assay: GST-DSTPK61 assay: activation and phosphorylation of GST-PKBα; assay type: biochemical; details: lipid 10 μM in PtdCho/PtdSer vesicles
# T2 construct: residues 1-752 of DSTPK61 in E. coli as fusion proteins; made in house; host or cells: E. coli (pGEX-3X)
# T2 sequence (Q9W0V1 85-836 Q200H/Q201E/Q317A/G443R): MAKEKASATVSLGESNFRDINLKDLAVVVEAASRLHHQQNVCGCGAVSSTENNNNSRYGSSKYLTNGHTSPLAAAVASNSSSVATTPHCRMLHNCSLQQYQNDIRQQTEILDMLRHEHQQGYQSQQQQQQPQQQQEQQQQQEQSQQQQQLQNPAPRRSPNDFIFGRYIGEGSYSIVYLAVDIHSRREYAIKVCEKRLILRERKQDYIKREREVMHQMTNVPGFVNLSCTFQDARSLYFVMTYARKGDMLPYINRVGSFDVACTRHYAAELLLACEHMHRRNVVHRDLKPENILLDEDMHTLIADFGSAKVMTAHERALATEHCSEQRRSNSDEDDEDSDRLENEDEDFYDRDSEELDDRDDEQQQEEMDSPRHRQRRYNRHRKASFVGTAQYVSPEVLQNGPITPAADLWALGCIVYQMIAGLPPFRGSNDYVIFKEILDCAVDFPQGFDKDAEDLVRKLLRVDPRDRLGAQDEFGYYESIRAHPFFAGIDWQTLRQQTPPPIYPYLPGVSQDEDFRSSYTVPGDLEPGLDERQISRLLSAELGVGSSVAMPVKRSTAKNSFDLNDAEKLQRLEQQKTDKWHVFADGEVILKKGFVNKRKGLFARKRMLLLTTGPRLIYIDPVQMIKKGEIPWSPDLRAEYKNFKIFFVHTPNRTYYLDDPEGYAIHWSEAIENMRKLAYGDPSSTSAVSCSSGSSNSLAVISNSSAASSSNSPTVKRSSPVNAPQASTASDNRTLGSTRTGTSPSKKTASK
# Experimental: as §1, §2
# [5] = system: HA-PKBα; assay: HA-PKBα activity in transfected 293 cells; assay type: cell-based, human
# Experimental: FIG. 14. PKBα is activated by cotransfection with PDK1 in 293 cells. (A) 293 cells were transiently transfected with DNA constructs expressing either HA-PKBα or both HA-PKBα and Myc-PDK1. The cells were then stimulated for 10 min with or without 50 ng/ml IGF1, the HA-PKBα immunoprecipitated from the lysates and assayed. The results are expressed relative to the specific activity of wild type HA-PKBα in unstimulated 293 cells ([…]). No PKBα activity was detected in mock transfections in which the cells were transfected with PCMV5 vector alone (data not shown). (B) 6 μg of protein from each lysate was electrophoresed on a 10% SDS/polyacrylamide gel and immunoblotted using either a monoclonal HA-antibody to detect HA-PKBα or a monoclonal Myc-antibody to detect Myc-PDK1. The molecular mass markers are glycogen phosphorylase (97 kDa), bovine serum albumin (67 kDa) and ovalbumin (43 kDa).
# Transfection of 293 cells with HA-tagged PBKα and Myc-PDK1. Human embryonic kidney 293 cells were cultured on 10 cm diameter dishes and transfected with 2 μg/ml pCMV5 DNA constructs encoding for HA-PKBα or HA-PKBα plus Myc-PDK1 [20]. After 24 h the cells were deprived of serum for a further 16 h and then stimulated for 10 min with either […] IGF1 or Buffer. The cells were lysed in 1.0 ml of ice-cold Buffer A, the lysate centrifuged at 4° C. for 10 min at 13,000×g and HA-PKBα immunoprecipitated from aliquots of the supernatant (10 μg protein) and assayed for PKBα with the peptide RPRAATF (SEQ ID NO: 9) as described previously.
# [6] = system: HA-PKBα; assay: 32P-labelling of transfected 293 cells: phosphorylation sites of HA-PKBα; assay type: cell-based, human; details: unstimulated 293 cells
# Experimental: FIG. 15. Overexpression of PDK1 in cells induces phosphorylation of PKBα at Thr308. 293 cells transiently transfected with either wild type HA-PKBα (panels A and C) or HA-PKBα and Myc-PDK1 (panels B and D) were incubated with ^32P-orthophosphate, then treated for 10 min without (panels A and B) or with (panels C and D) 50 ng/ml IGF1. The ^32P-labelled HA-PKBα was immunoprecipitated from the lysates, treated with 4-vinylpyridine, and electrophoresed on 1 10% polyacrylamide gel. The HA-PKBα was excised from the gel, digested with trypsin and chromatographed on a C18 column (see legend to FIG. 13) to resolve the four major phosphopeptides which are phosphorylated at Ser-124, Ser473, Thr308 and Thr450 respectively. The identity of each phosphopeptide was established by phospho-amino acid analysis and solid phase sequencing. Similar results were obtained in two separate experiments for (panels A and C), and in three separate experiments (panels B and D).
# ^32P-labelling of 293 cells transfected with HA-PKBα or Myc-PDK1. This was carried out essentially as described previously. Briefly, 293 cells were transfected with HA-PKBα, or with HA-PKBα plus Myc-PDK1, washed with phosphate free DMEM, incubated for 4 h with [^32P]-orthophosphate (1 mCi/ml), then stimulated with IGF1 (50 ng/ml) for 5 min. The cells were lysed, and the HA-PKBα immunoprecipitated (using 10 μg of 12CAS antibody per 10 cm dish of cells) or the Myc-PDK1 immunoprecipitated (using 10 μg of 9E10 antibody per 10 cm dish of cells). The immunoprecipitated protein was alkylated with 4-vinylpyridine, subjected to SDS/polyacrylamide gel electrophoresis, digested with trypsin and analysed by chromatography on a C18 column (Alessi et al (1996) EMBO J. 15, 6541-6551).
molecule,measurement,setting,value
"CCCCCCCCCCCCCCCC(=O)OC[C@H](COP(=O)(O)OC1C(O)C(OP(=O)(O)O)C(O)C(OP(=O)(O)O)C1O)OC(=O)CCCCCCCCCCCCCCC (stereo partly drawn) [Lipid 8, sn-1,2 di-palmitoyl PtdIns(3,5)P2]",activation of PDK1 (in words),[1],no significant activation
same,activation of PDK1 (in words),"[1]; listed as PtdIns(3,5)P2",did not activate PDK1 at all
same,activation of PDK1 (in words),[1]; listed as lipid 8,did not activate PDK1
same,phosphorylation of GST-PKBα by PDK1 (in words),[2],did not activate PDK1 or induce the phosphorylation
"CCCCCCCCCCCCCCCC(=O)OC[C@H](COP(=O)(O)OC1C(O)C(O)C(O)C(OP(=O)(O)O)C1O)OC(=O)CCCCCCCCCCCCCCC (stereo partly drawn) [Lipid 11, sn-1,2 di-palmitoyl PtdIns-3P]",activation of PDK1 (in words),[1],no significant activation
same,activation of PDK1 (in words),[1]; listed as PtdIns(3)P,did not activate PDK1 at all
same,activation of PDK1 (in words),[1]; listed as lipid 11,did not activate PDK1
same,phosphorylation of GST-PKBα by PDK1 (in words),[2],did not activate PDK1 or induce the phosphorylation
same,activation and phosphorylation of GST-PKBα by GST-PDK1 (in words),[3],no activation or phosphorylation
same,activation and phosphorylation of GST-PKBα by GST-DSTPK61 (in words),[4],no activation or phosphorylation
PtdIns 4P [Lipid 10],activation of PDK1 (in words),[1],no significant activation
same,activation of PDK1 (in words),[1]; listed as PtdIns(4)P,did not activate PDK1 at all
same,activation of PDK1 (in words),[1]; listed as lipid 10,did not activate PDK1
same,phosphorylation of GST-PKBα by PDK1 (in words),[2],did not activate PDK1 or induce the phosphorylation
B1,activation of HA-PKBα on cotransfection (in words),[5]; 293 cells,not activated significantly
B2,fold increase of HA-PKBα activity on cotransfection,[5]; unstimulated 293 cells,20 fold
same,phosphorylation of HA-PKBα at Thr308 relative to IGF1-stimulated cells transfected with HA-PKBα alone,[6]; cotransfection,70%
same,phosphorylation of HA-PKBα at Ser473 on cotransfection (in words),[6],did not induce phosphorylation of HA-PKBα at Ser473
